# Source: ChEMBL document CHEMBL5620367, “Discovery of new tetrahydroisoquinolines as potent and selective LSD1 inhibitors for the treatment of MLL-rearranged leukemia” (Eur J Med Chem, 2023)
# The source made the active and inactive calls. The rule behind the calls is not given here.
# Legend:
# MOLM-13 [1] = test: Induction of apoptosis in human MOLM-13 cells assessed as late apoptotic cells at 10 uM incubated for 3 days by Annexin V staining based flow cytometry (reference value: 3.29 %); format: functional; conditions: time 3 day
# MOLM-13 [2] = test: Induction of apoptosis in human MOLM-13 cells assessed as viable cells at 10 uM incubated for 3 days by Annexin V staining based flow cytometry (reference value: 90.54 %); format: functional; conditions: MOLM-13, 72 h, time 3 day, read-out: Activity
# MV4-11 [3] = test: Induction of apoptosis in human MV4-11 cells assessed as viable cells at 30 uM incubated for 3 days by Annexin V staining based flow cytometry (reference value: 89.63 %); format: functional; conditions: MV4-11, 72 h, time 3 day, read-out: Activity
# [4] = molecular target: T1, MAO-B (amine oxidase [flavin-containing] B) (Homo sapiens, UniProt P27338); test: Inhibition of N-terminal FLAG-tagged recombinant human MAO-B expressed in baculovirus infected Sf9 cells upto 10 uM preincubated for 15 mins followed by addition of luciferin derivative substrate measured after 1 hr by Luciferase Glo assay relative to control; conditions: probe luciferin derivative substrate, time 75 min
# T1 sequence (P27338 whole entry): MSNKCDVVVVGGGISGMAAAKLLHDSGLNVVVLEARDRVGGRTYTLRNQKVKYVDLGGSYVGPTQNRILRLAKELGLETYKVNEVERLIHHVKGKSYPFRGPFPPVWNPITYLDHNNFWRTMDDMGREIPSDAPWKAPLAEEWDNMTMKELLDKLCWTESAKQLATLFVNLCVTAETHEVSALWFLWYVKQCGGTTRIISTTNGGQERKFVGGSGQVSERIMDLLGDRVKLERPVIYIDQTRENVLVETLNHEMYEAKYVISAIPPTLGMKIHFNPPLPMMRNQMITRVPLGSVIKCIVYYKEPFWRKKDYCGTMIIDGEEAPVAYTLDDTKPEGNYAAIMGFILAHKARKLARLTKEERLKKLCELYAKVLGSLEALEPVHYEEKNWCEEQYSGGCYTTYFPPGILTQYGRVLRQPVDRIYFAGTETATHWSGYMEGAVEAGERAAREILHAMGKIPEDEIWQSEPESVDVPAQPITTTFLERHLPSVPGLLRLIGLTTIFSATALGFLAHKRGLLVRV
# MV4-11 [5] = test: Antitumor activity against human MV4-11 cells xenografted in NOD-SCID mouse assessed as decrease in leukemic cells in blood at 50 mg/kg, sc measured after 33 days relative to control; format: functional; design: scale not given: the % may be the effect or the level left; conditions: time 33 day
# MOLM-13 [6] = test: Induction of apoptosis in human MOLM-13 cells assessed as necrotic cells at 100 uM incubated for 3 days by Annexin V staining based flow cytometry (reference value: 1.23 %); format: functional; conditions: time 3 day
# MV4-11 [7] = test: Induction of cell differentiation in human MV4-11 cells assessed as increase in CD14 level upto 100 uM incubated for 3 days by Annexin V staining based flow cytometry; format: functional; conditions: time 3.0 day
# MOLM-13 [8] = test: Cytotoxicity against human MOLM-13 cells incubated for 7 days by CCK8 assay; conditions: MOLM-13, 168 h
# MV4-11 [9] = test: Antitumor activity against human MV4-11 cells xenografted in NOD-SCID mouse assessed as decrease in leukemic cells in spleen at 78.7 mg/kg, sc measured after 33 days relative to control; format: functional; design: scale not given: the % may be the effect or the level left; conditions: time 33 day
# MV4-11 [10] = test: Induction of apoptosis in human MV4-11 cells assessed as viable cells at 10 uM incubated for 3 days by Annexin V staining based flow cytometry (reference value: 89.63 %); format: functional; conditions: MV4-11, 72 h, time 3 day, read-out: Activity
# MOLM-13 [11] = test: Anti-cancer activity against human MOLM-13 cells assessed as reduction in HoxA9 mRNA level upto 100 uM by qRT-PCR analysis relative to control; format: functional; design: scale not given: the % may be the effect or the level left; conditions: up to 100 µM
# MOLM-13 [12] = test: Induction of cell differentiation in human MOLM-13 cells assessed as CD11b level at 100 uM incubated for 3 days by Annexin V staining based flow cytometry (reference value: 13.77 %); format: functional; conditions: time 3 day
# MV4-11 [13] = test: Induction of apoptosis in human MV4-11 cells assessed as necrotic cells at 10 uM incubated for 3 days by Annexin V staining based flow cytometry (reference value: 2.45 %); format: functional; conditions: time 3 day
# MV4-11 [14] = test: Anti-invasive activity against human MV4-11 cells xenografted in NOD-SCID mouse assessed as reduction in tumor formation in ovarian tissue at 50 mg/kg, sc measured after 33 days; format: functional, organism-based; conditions: time 33.0 day
# MOLM-13 [15] = test: Induction of apoptosis in human MOLM-13 cells assessed as viable cells at 100 uM incubated for 3 days by Annexin V staining based flow cytometry (reference value: 90.54 %); format: functional; conditions: MOLM-13, 72 h, time 3 day, read-out: Activity
# MV4-11 [16] = test: Antitumor activity against human MV4-11 cells xenografted in NOD-SCID mouse assessed as decrease in leukemic cells in spleen at 50 mg/kg, sc measured after 33 days relative to control; format: functional; design: scale not given: the % may be the effect or the level left; conditions: time 33 day
# MV4-11 [17] = test: Induction of apoptosis in human MV4-11 cells assessed as early apoptotic cells at 30 uM incubated for 3 days by Annexin V staining based flow cytometry (reference value: […] %); format: functional; conditions: time 3 day
# MOLM-13 [18] = test: Induction of apoptosis in human MOLM-13 cells assessed as early apoptotic cells at 10 uM incubated for 3 days by Annexin V staining based flow cytometry (reference value: 4.94 %); format: functional; conditions: time 3 day
# MV4-11 [19] = test: Antitumor activity against human MV4-11 cells xenografted in NOD-SCID mouse assessed as decrease in leukemic cells in blood at 78.7 mg/kg, sc measured after 33 days relative to control; format: functional; design: scale not given: the % may be the effect or the level left; conditions: time 33 day
# [20] = Toxicity in NOD-SCID mouse xenografted with human MV4-11 cells assessed as body weight reduction at 50 to 78.7 mg/kg, sc measured after 33 days; format: organism-based; design: scale not given: the % may be the effect or the level left; conditions: in vivo, 792 h, dose 50-78.7 mg/kg, time 33 day
# MV4-11 [21] = test: Induction of apoptosis in human MV4-11 cells assessed as late apoptotic cells at 10 uM incubated for 3 days by Annexin V staining based flow cytometry (reference value: 7.29 %); format: functional; conditions: time 3 day
# MV4-11 [22] = test: Anti-invasive activity against human MV4-11 cells xenografted in NOD-SCID mouse assessed as reduction in tumor formation in ovarian tissue at 78.7 mg/kg, sc measured after 33 days; format: functional, organism-based; conditions: time 33.0 day
# MOLM-13 [23] = test: Induction of cell differentiation in human MOLM-13 cells assessed as CD11b level at 30 uM incubated for 3 days by Annexin V staining based flow cytometry (reference value: 13.77 %); format: functional; conditions: time 3 day
# [24] = Toxicity in NOD-SCID mouse xenografted with human MV4-11 cells assessed as animal survival at 50 to 78.7 mg/kg, sc measured after 33 days; format: organism-based; conditions: in vivo, 792 h, dose 50-78.7 mg/kg, time 33 day
# MOLM-13 [25] = test: Anti-cancer activity against human MOLM-13 cells assessed as reduction in Meis1 mRNA level upto 100 uM by qRT-PCR analysis relative to control; format: functional; design: scale not given: the % may be the effect or the level left; conditions: up to 100 µM
# MOLM-13 [26] = test: Induction of apoptosis in human MOLM-13 cells assessed as late apoptotic cells at 30 uM incubated for 3 days by Annexin V staining based flow cytometry (reference value: 3.29 %); format: functional; conditions: time 3 day
# MV4-11 [27] = test: Induction of cell differentiation in human MV4-11 cells assessed as CD11b level at 30 uM incubated for 3 days by Annexin V staining based flow cytometry (reference value: 8.58 %); format: functional; conditions: time 3 day
# MOLM-13 [28] = test: Induction of apoptosis in human MOLM-13 cells assessed as necrotic cells at 10 uM incubated for 3 days by Annexin V staining based flow cytometry (reference value: 1.23 %); format: functional; conditions: time 3 day
smiles,measurement,setting,value
O=C(O)C(F)(F)F.O=[N+]([O-])c1ccc(C2NCCc3cc(O)c(O)cc32)cc1 (stereo not drawn),Activity,MOLM-13 [1],9.88%
same,viability at 10 µM,MOLM-13 [2],76.6%
same,viability at 30 µM,MV4-11 [3],57.8%
same,"inhibition at 1 h, up to 10 µM",[4],< 30%
same,Activity,MV4-11 [5],35%
same,Activity,MOLM-13 [6],16.41%
same,Activity,MV4-11 [7],Active
same,IC50,MOLM-13 [8],83 µM
same,Activity,MV4-11 [9],87%
same,viability at 10 µM,MV4-11 [10],66.2%
same,Activity,MOLM-13 [11],~70%
same,Activity,MOLM-13 [12],93.75%
same,Activity,MV4-11 [13],4.05%
same,Activity,MV4-11 [14],inactive
same,viability at 100 µM,MOLM-13 [15],56%
same,Activity,MV4-11 [16],32%
same,Activity,MV4-11 [17],7.75%
same,Activity,MOLM-13 [18],7.17%
same,Activity,MV4-11 [19],81%
same,Activity,[20],> 20%
same,Activity,MV4-11 [21],22.73%
same,Activity,MV4-11 [22],Active
same,Activity,MOLM-13 [23],90.6%
same,Activity,[24],Non-Toxic
same,Activity,MOLM-13 [25],~60%
same,Activity,MOLM-13 [26],15.99%
same,Activity,MV4-11 [27],34.78%
same,Activity,MOLM-13 [28],6.32%
